Experimental data taken from the supplement of paper PMC10307832.

Legend:
Assay in all cases: relative viability (nuclei count vs DMSO), 5 days (fraction); higher = more cells survive
NCI-H1944 = tested on: NCI-H1944
Summary of the method: (§1)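 Relative viability divides the nuclei count in treated wells by that in vehicle wells. Lung cancer cell lines were seeded in 1536-well plates, dosed by pin tool the next day, and fixed and stained after 5 days in one step with final 0.05% Triton X-100, 1% formaldehyde and 1 ug/ml Hoechst. Dosing was a single drug or a fixed anchor-drug dose plus five library-drug doses (not always all listed) in √10 steps, and values are medians of duplicate plates imaged at 4×.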

HCC-827 = tested on: HCC-827
Summary of the method: as §1

COR-L 105 = tested on: COR-L 105
Summary of the method: as §1

H3255 = tested on: H3255
Summary of the method: as §1

EPLC-272H = tested on: EPLC-272H
Summary of the method: as §1

NCI-H520 = tested on: NCI-H520
Summary of the method: as §1

NCI-H2087 = tested on: NCI-H2087
Summary of the method: as §1

NCI-H647 = tested on: NCI-H647
Summary of the method: as §1

NCI-H1651 = tested on: NCI-H1651
Summary of the method: as §1

NCI-H522 = tested on: NCI-H522
Summary of the method: as §1

NCI-H1755 = tested on: NCI-H1755
Summary of the method: as §1

COR-L23 = tested on: COR-L23
Summary of the method: as §1

LCLC-103H = tested on: LCLC-103H
Summary of the method: as §1

NCI-H1975 = tested on: NCI-H1975
Summary of the method: as §1

NCI-H358 = tested on: NCI-H358
Summary of the method: as §1

NCI-H650 = tested on: NCI-H650
Summary of the method: as §1

NCI-H1650 = tested on: NCI-H1650
Summary of the method: as §1

NCI-H1437 = tested on: NCI-H1437
Summary of the method: as §1

HCC-15 = tested on: HCC-15
Summary of the method: as §1

NCI-H1792 = tested on: NCI-H1792
Summary of the method: as §1

NCI-H727 = tested on: NCI-H727
Summary of the method: as §1

NCI-H661 = tested on: NCI-H661
Summary of the method: as §1

Structure (SMILES): COCC1(CO)C(=O)C2CCN1CC2 (stereo unspecified) [PRIMA-1MET] + Cc1nc(Nc2ncc(C(=O)Nc3c(C)cccc3Cl)s2)cc(N2CCN(CCO)CC2)n1 [Dasatinib] (partner 0.075 µM)
- relative viability (NCI-H1944; first compound 0.2 µM): 0.225
- relative viability (NCI-H1944; first compound 0.6325 µM): 0.19
- relative viability (NCI-H1944; first compound 2 µM): 0.213
- relative viability (NCI-H1944; first compound 6.325 µM): 0.219
- relative viability (NCI-H1944; first compound 20 µM): 0.232
- relative viability (HCC-827; first compound 0.2 µM): 0.417
- relative viability (HCC-827; first compound 0.6325 µM): 0.337
- relative viability (HCC-827; first compound 2 µM): 0.427
- relative viability (HCC-827; first compound 6.325 µM): 0.332
- relative viability (HCC-827; first compound 20 µM): 0.315
- relative viability (COR-L 105; first compound 0.2 µM): 0.346
- relative viability (COR-L 105; first compound 0.6325 µM): 0.404
- relative viability (COR-L 105; first compound 2 µM): 0.292
- relative viability (COR-L 105; first compound 6.325 µM): 0.161
- relative viability (COR-L 105; first compound 20 µM): 0.091
- relative viability (H3255; first compound 0.2 µM): 0.285
- relative viability (H3255; first compound 0.6325 µM): 0.439
- relative viability (H3255; first compound 2 µM): 0.487
- relative viability (H3255; first compound 6.325 µM): 0.373
- relative viability (H3255; first compound 20 µM): 0.28
- relative viability (EPLC-272H; first compound 2 µM): 0.349
- relative viability (EPLC-272H; first compound 6.325 µM): 0.347
- relative viability (EPLC-272H; first compound 20 µM): 0.0979
- relative viability (NCI-H520; first compound 0.2 µM): 0.203
- relative viability (NCI-H520; first compound 0.6325 µM): 0.204
- relative viability (NCI-H520; first compound 2 µM): 0.258
- relative viability (NCI-H520; first compound 6.325 µM): 0.176
- relative viability (NCI-H520; first compound 20 µM): 0.13
- relative viability (NCI-H2087; first compound 0.2 µM): 0.471
- relative viability (NCI-H2087; first compound 0.6325 µM): 0.727
- relative viability (NCI-H2087; first compound 2 µM): 0.626
- relative viability (NCI-H2087; first compound 6.325 µM): 0.876
- relative viability (NCI-H2087; first compound 20 µM): 0.289
- relative viability (NCI-H647; first compound 0.2 µM): 0.165
- relative viability (NCI-H647; first compound 0.6325 µM): 0.16
- relative viability (NCI-H647; first compound 2 µM): 0.156
- relative viability (NCI-H647; first compound 6.325 µM): 0.173
- relative viability (NCI-H647; first compound 20 µM): 0.0339
- relative viability (NCI-H1651; first compound 0.2 µM): 0.455
- relative viability (NCI-H1651; first compound 0.6325 µM): 0.468
- relative viability (NCI-H1651; first compound 2 µM): 0.423
- relative viability (NCI-H1651; first compound 6.325 µM): 0.415
- relative viability (NCI-H1651; first compound 20 µM): 0.432
- relative viability (NCI-H522; first compound 0.2 µM): 0.797
- relative viability (NCI-H522; first compound 0.6325 µM): 0.738
- relative viability (NCI-H522; first compound 2 µM): 0.852
- relative viability (NCI-H522; first compound 6.325 µM): 0.68
- relative viability (NCI-H522; first compound 20 µM): 0.0665
- relative viability (NCI-H1755; first compound 0.2 µM): 0.476
- relative viability (NCI-H1755; first compound 0.6325 µM): 0.471
- relative viability (NCI-H1755; first compound 2 µM): 0.397
- relative viability (NCI-H1755; first compound 6.325 µM): 0.434
- relative viability (NCI-H1755; first compound 20 µM): 0.423
- relative viability (COR-L23; first compound 0.2 µM): 0.508
- relative viability (COR-L23; first compound 0.6325 µM): 0.478
- relative viability (COR-L23; first compound 2 µM): 0.595
- relative viability (COR-L23; first compound 6.325 µM): 0.432
- relative viability (COR-L23; first compound 20 µM): 0.0161
- relative viability (LCLC-103H; first compound 0.2 µM): 0.566
- relative viability (LCLC-103H; first compound 0.6325 µM): 0.422
- relative viability (LCLC-103H; first compound 2 µM): 0.431
- relative viability (LCLC-103H; first compound 6.325 µM): 0.447
- relative viability (LCLC-103H; first compound 20 µM): 0.342
- relative viability (NCI-H1975; first compound 0.2 µM): 0.359
- relative viability (NCI-H1975; first compound 0.6325 µM): 0.349
- relative viability (NCI-H1975; first compound 2 µM): 0.366
- relative viability (NCI-H1975; first compound 6.325 µM): 0.375
- relative viability (NCI-H1975; first compound 20 µM): 0.19
- relative viability (NCI-H358; first compound 0.2 µM): 0.186
- relative viability (NCI-H358; first compound 2 µM): 0.174
- relative viability (NCI-H358; first compound 6.325 µM): 0.178
- relative viability (NCI-H358; first compound 20 µM): 0.0822
- relative viability (NCI-H650; first compound 0.2 µM): 0.565
- relative viability (NCI-H650; first compound 2 µM): 0.469
- relative viability (NCI-H650; first compound 6.325 µM): 0.472
- relative viability (NCI-H650; first compound 20 µM): 0.454
- relative viability (NCI-H1650; first compound 0.2 µM): 0.341
- relative viability (NCI-H1650; first compound 0.6325 µM): 0.327
- relative viability (NCI-H1650; first compound 2 µM): 0.337
- relative viability (NCI-H1650; first compound 6.325 µM): 0.282
- relative viability (NCI-H1650; first compound 20 µM): 0.06
- relative viability (NCI-H1437; first compound 0.2 µM): 0.435
- relative viability (NCI-H1437; first compound 0.6325 µM): 0.184
- relative viability (NCI-H1437; first compound 2 µM): 0.43
- relative viability (NCI-H1437; first compound 6.325 µM): 0.405
- relative viability (NCI-H1437; first compound 20 µM): 0.286
- relative viability (HCC-15; first compound 0.2 µM): 0.732
- relative viability (HCC-15; first compound 0.6325 µM): 0.628
- relative viability (HCC-15; first compound 2 µM): 0.639
- relative viability (HCC-15; first compound 6.325 µM): 0.625
- relative viability (HCC-15; first compound 20 µM): 0.181
- relative viability (NCI-H1792; first compound 0.2 µM): 0.816
- relative viability (NCI-H1792; first compound 0.6325 µM): 0.717
- relative viability (NCI-H1792; first compound 2 µM): 0.811
- relative viability (NCI-H1792; first compound 6.325 µM): 0.883
- relative viability (NCI-H1792; first compound 20 µM): 0.754
- relative viability (NCI-H727; first compound 0.2 µM): 0.273
- relative viability (NCI-H727; first compound 0.6325 µM): 0.346
- relative viability (NCI-H727; first compound 2 µM): 0.351
- relative viability (NCI-H727; first compound 6.325 µM): 0.225
- relative viability (NCI-H727; first compound 20 µM): 0.166
- relative viability (NCI-H661; first compound 0.2 µM): 0.858
- relative viability (NCI-H661; first compound 0.6325 µM): 0.733
- relative viability (NCI-H661; first compound 2 µM): 0.89
- relative viability (NCI-H661; first compound 6.325 µM): 0.883
- relative viability (NCI-H661; first compound 20 µM): 0.796
